Values after ≈ are worked out from the molar mass of the structure shown. Read-outs that look alike come from different tables or passages of the source. Each block holds one compound with its values, some of them ahead of it.
Key:
[1] = test system: Aspergillus fumigatus (RCMB 02568); assay: Well diffusion assay (inhibition zone); format: cell-based
Protocol: (§1) The microorganism inoculums were uniformly spread using sterile cotton swabs on a sterile Petri dish malt extract agar (for fungi) and nutrient agar (for bacteria). One hundred cubic millimeters of each sample was added to each well (10 mm-diameter holes were cut in the agar gel, 20 mm apart from one another). The systems were incubated for 24-48 h at 37 °C (for bacteria) and at 28 °C (for fungi). After incubation, the microorganism growth was observed. Inhibition zones of the bacterial and fungal growth were measured in millimeters. Tests were performed in triplicate (Cappuccino and Sherman, 1999[12]; Vanden Berghe and Vlientinck, 1991[62]).
(§2) All the newly synthesized compounds described in this report were screened for both antibacterial and antifungal activity via the reported agar diffusion well method (Vanden Berghe and Vlietinck, 1991[62]). The inhibition zones and minimum inhibitory concentrations (MIC) were determined by the serial dilution method (Cappuccino and Sherman, 1999[12]). The antimicrobial activity of the synthesized compounds was tested against a broad panel of microorganisms including two Gram-positive bacteria: Streptococcus pneumoniae (RCMB 010010) and Bacillus subtilis (RCMB 010067), two Gram-negative bacteria: Pseudomonas aeruginosa (RCMB 010043) and Escherichia coli (RCMB 010052), and four fungi: Aspergillus fumigatus (RCMB 02568), Syncephalastrum racemosum (RCMB 05922), Geotricum candidum (RCMB 05097), and Candida albicans (RCMB 05036). Ampicillin, ciprofloxacin, gentamicin and amphotericin B were used as positive control drugs (Atta-ur-Rahman and Thomsen, 2001[7]; Smania et al., 1999[57]). […] While in the case of Gm-ve bacteria, they had weak activity. In addition, certain strains of fungi were sensitive to tested compounds with an IZ range from 12-25 except Candida albicans.

[2] = test system: Syncephalastrum racemosum (RCMB 05922); assay: Well diffusion assay (inhibition zone); format: cell-based
Protocol: as §1, §2

[3] = test system: Candida albicans (RCMB 05036); assay: Well diffusion assay (inhibition zone); format: cell-based; details: RCMB05036, 5 mg/mL in DMSO, fungi, read-out: Inhibition Zone (IZ) diameter, C.A
Protocol: as §1, §2

[4] = test system: Geotricum candidum (RCMB 05097); assay: Well diffusion assay (inhibition zone); format: cell-based; details: read-out: Inhibition Zone (IZ) diameter, G.C
Protocol: as §1, §2

[5] = test system: Aspergillus fumigatus (RCMB 02568); assay: MIC by serial dilution method; format: cell-based
Protocol: as §2

[6] = test system: Syncephalastrum racemosum (RCMB 05922); assay: MIC by serial dilution method; format: cell-based
Protocol: as §2

[7] = test system: Geotricum candidum (RCMB 05097); assay: MIC by serial dilution method; format: cell-based; details: read-out: Minimum inhibitory concentration, MIC, G.C
Protocol: as §2

[8] = test system: Gm+ve bacteria, Gm-ve bacteria, fungi; assay: Well diffusion assay, statements over groups of microorganisms; format: cell-based
Protocol: as §1
All the newly synthesized compounds described in this report were screened for both antibacterial and antifungal activity via the reported agar diffusion well method (Vanden Berghe and Vlietinck, 1991[62]). The inhibition zones and minimum inhibitory concentrations (MIC) were determined by the serial dilution method (Cappuccino and Sherman, 1999[12]). […]

[9] = test system: Bacillus subtilis (RCMB 010067); assay: Well diffusion assay (inhibition zone); format: cell-based
Protocol: as §1, §2

[10] = test system: Streptococcus pneumoniae (RCMB 010010); assay: Well diffusion assay (inhibition zone); format: cell-based
Protocol: as §1, §2

[11] = test system: Escherichia coli (RCMB 010052); assay: Well diffusion assay (inhibition zone); format: cell-based
Protocol: as §1, §2

[12] = test system: human hepatocellular carcinoma (HEPG-2); assay: Cytotoxic screening; format: cell-based; details: HepG2, read-out: IC50 HepG-2
Outline: (§3)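 Read-out is crystal violet staining (the text also names MTT), lysis in 33 % acetic acid, A590, with untreated cells as 100 %. IC50 was estimated graphically from survival curves.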

[13] = test system: human breast adenocarcinoma (MCF-7); assay: Cytotoxic screening; format: cell-based
Outline: as §3

[14] = test system: Human colon carcinoma (HCT-116); assay: Cytotoxic screening; format: cell-based
Outline: as §3

[15] = test system: HCT-116, MCF-7, HEPG-2; assay: Cytotoxic screening, statements over the three cell lines; format: cell-based; details: Homo sapiens, read-out: IC50, range over the three cell lines
Protocol: Human colon carcinoma (HCT-116), human hepatocellular carcinoma (HEPG-2), adenocarcinomic human alveolar basal epithelial cell (A-549), and human breast adenocarcinoma (MCF-7) cell lines were obtained from the American Type Culture Collection (ATCC, Rockville, MD). The cells were grown on RPMI-1640 medium supplemented with 10 % inactivated fetal calf serum and 50 µg/ml gentamycin. The cells were maintained at 37 °C in a humidified atmosphere with 5 % CO2 and were subcultured two to three times a week. Potential cytotoxicity of the compounds was evaluated on tumor cells using the method of Gangadevi and Muthumary (2007[21]) (Klancnik et al., 2010[36]). The cells were grown as monolayers in growth RPMI-1640. The monolayers of 104 cells adhered at the bottom of the wells in a 96-well microtiter plate incubated for 24 h at 37 °C in a humidified incubator with 5 % CO2. The monolayers were then washed with sterile phosphate buffered saline (0.01 M pH 7.2) and simultaneously the cells were treated with 100 µL from different dilutions of tested sample in fresh maintenance medium and incubated at 37 °C. A control of untreated cells was made in the absence of tested sample. Positive controls containing doxorubicin were also tested as a reference drug for comparison. Six wells were used for each concentration of the test sample. Every 24 hours an observation under the inverted microscope was made. The number of the surviving cells was determined by staining the cells with crystal violet (Mosmann, 1983[42]; Gangadevi and Muthumary, 2007[21]) followed by cell lysing using 33 % glacial acetic acid and reading the absorbance at 590 nm using microplate reader (SunRise, TECAN, Inc, USA) after well mixing. The absorbance values from untreated cells were considered as 100 % proliferation. The number of viable cells was determined using microplate reader as previously mentioned before and the percentage of […] was calculated as [1-(ODt/ODc)] x 100 % where ODt is the mean optical density of wells treated with the tested sample and ODc is the mean optical density of untreated cells. The relation between surviving cells and drug concentration was plotted to get the survival curve of each tumor cell line after treatment with the specified compound. The 50 % inhibitory concentration (IC50), the concentration required to cause toxic effects in 50 % of intact cells, was estimated from graphic plots.
The in vitro cytotoxic activity was performed by MTT assay (Mosmann, 1983[42]; Alley et al., 1988[6]) against three human carcinoma cell lines: Human colon carcinoma (HCT-116), human breast adenocarcinoma (MCF-7), and human hepatocellular carcinoma (HEPG-2).

[16] = test system: Bacillus subtilis (RCMB 010067); assay: MIC by serial dilution method; format: cell-based; details: RCMB010067, read-out: Minimum inhibitory concentration, MIC, B.S
Protocol: as §2

[17] = test system: Streptococcus pneumoniae (RCMB 010010); assay: MIC by serial dilution method; format: cell-based; details: RCMB010010, read-out: Minimum inhibitory concentration, MIC, S.P
Protocol: as §2

[18] = test system: Escherichia coli (RCMB 010052); assay: MIC by serial dilution method; format: cell-based; details: RCMB010052, read-out: Minimum inhibitory concentration, MIC, E.C
Protocol: as §2

[19] = RCMB02568, 5 mg/mL in DMSO, fungi, read-out: Inhibition Zone (IZ) diameter, A.F
[20] = RCMB05922, 5 mg/mL in DMSO, fungi, read-out: Inhibition Zone (IZ) diameter, S.R
[21] = RCMB010067, 5 mg/mL in DMSO, Gm+ve, read-out: Inhibition Zone (IZ) diameter, B.S
[22] = RCMB010010, 5 mg/mL in DMSO, Gm+ve, read-out: Inhibition Zone (IZ) diameter, S.P
[23] = RCMB010052, 5 mg/mL in DMSO, Gm-ve, read-out: Inhibition Zone (IZ) diameter, E.C
[24] = Homo sapiens, MCF7; read-out: IC50 MCF-7
[25] = Homo sapiens, HCT-116; read-out: IC50 HCT-116

MIC ([5]; RCMB02568, fungi, read-out: Minimum inhibitory concentration, MIC, A.F): 0.24 µg/mL (≈ 0.26 µM)
MIC ([6]; RCMB05922, fungi, read-out: Minimum inhibitory concentration, MIC, S.R): 3.9 µg/mL (≈ 4.22 µM)
MIC ([7]; fungi): 0.015 µg/mL (≈ 0.0162 µM)
Structure (SMILES): C[C@@H]1[C@H](O)[C@@H](C)/C=C/C=C/C=C/C=C/C=C/C=C/C=C/[C@H](O[C@@H]2O[C@H](C)[C@@H](O)[C@H](N)[C@@H]2O)C[C@@H]2O[C@](O)(C[C@@H](O)C[C@@H](O)[C@H](O)CC[C@@H](O)C[C@@H](O)CC(=O)O[C@H]1C)C[C@H](O)[C@H]2C(=O)O [Amphotericin B, reference compound]
zone of inhibition at 5000 µg/mL [1, 19]: 23.7 mm
zone of inhibition at 5000 µg/mL [2, 20]: 19.7 mm
zone of inhibition at 5000 µg/mL [3]: 25.4 mm
zone of inhibition at 5000 µg/mL ([4]; 5 mg/mL in DMSO, fungi): 28.7 mm

Structure (SMILES): N#CC1=C(N)Oc2c(ccc3c(N)cccc23)C1c1c(F)cc(F)cc1F (stereo not shown) [7d, 2,7-Diamino-4-(2,4,6-trifluoro-phenyl)-4H-benzo[h]chromene-3-carbonitrile]
IZ range against Gm+ve, Gm-ve bacteria, and fungi [8]: 18-23 mm
melting point: 235 °C
zone of inhibition at 5000 µg/mL [9, 21]: 22.3 mm
zone of inhibition at 5000 µg/mL [1, 19]: 20.3 mm
zone of inhibition at 5000 µg/mL [2, 20]: 18.1 mm
zone of inhibition at 5000 µg/mL [10, 22]: 21.6 mm
zone of inhibition at 5000 µg/mL [11, 23]: 20.8 mm
zone of inhibition at 5000 µg/mL ([4]; 5 mg/mL in DMSO, fungi): 22.4 mm
IC50 [12]: 52.3 µg/mL (≈ 142 µM)
IC50 [13, 24]: 54 µg/mL (≈ 147 µM)
IC50 [14, 25]: 61.3 µg/mL (≈ 167 µM)

Structure (SMILES): COc1ccc(C2C(C#N)=C(N)Oc3c2ccc2c(N)cccc32)cc1 (stereo not shown) [7b, 2,7-Diamino-4-(4-methoxy-phenyl)-4H-benzo[h]chromene-3-carbonitrile]
IZ range against Gm+ve, Gm-ve bacteria, and fungi [8]: 18-23 mm
melting point: 185 °C
zone of inhibition at 5000 µg/mL [9, 21]: 23.2 mm
zone of inhibition at 5000 µg/mL [1, 19]: 21.6 mm
zone of inhibition at 5000 µg/mL [2, 20]: 20.3 mm
zone of inhibition at 5000 µg/mL [10, 22]: 22.4 mm
zone of inhibition at 5000 µg/mL [11, 23]: 22.1 mm
zone of inhibition at 5000 µg/mL ([4]; 5 mg/mL in DMSO, fungi): 22.6 mm
IC50 [12]: 28.2 µg/mL (≈ 82.1 µM)
IC50 [13, 24]: 25.9 µg/mL (≈ 75.4 µM)
IC50 [14, 25]: 44.1 µg/mL (≈ 128 µM)

Structure (SMILES): Nc1cc2ccccc2cc1O [compound 1, 3-amino-2-naphthol]
IC50 [15]: 60 to 230 µg/mL (≈ 377 to 1440 µM)
zone of inhibition at 5000 µg/mL ([9]; RCMB010067, read-out: Inhibition Zone (IZ) diameter, B.S): 17.8 mm
zone of inhibition at 5000 µg/mL ([1]; RCMB02568, read-out: Inhibition Zone (IZ) diameter, A.F): 16.6 mm
zone of inhibition at 5000 µg/mL ([2]; RCMB05922, read-out: Inhibition Zone (IZ) diameter, S.R): 14.3 mm
zone of inhibition at 5000 µg/mL ([10]; RCMB010010, read-out: Inhibition Zone (IZ) diameter, S.P): 15.9 mm
zone of inhibition at 5000 µg/mL ([11]; RCMB010052, read-out: Inhibition Zone (IZ) diameter, E.C): 15.5 mm
zone of inhibition at 5000 µg/mL [4]: 19.2 mm
IC50 [12]: 60.5 µg/mL (≈ 380 µM)
IC50 ([13]; Homo sapiens, MCF7, read-out: IC50 MCF-7): 230 µg/mL (≈ 1440 µM)
IC50 ([14]; Homo sapiens, HCT-116, read-out: IC50 HCT-116): 218 µg/mL (≈ 1370 µM)
MIC [16]: 31.2 µg/mL (≈ 196 µM)
MIC ([5]; RCMB02568, read-out: Minimum inhibitory concentration, MIC, A.F): 15.6 µg/mL (≈ 98.2 µM)
MIC ([6]; RCMB05922, read-out: Minimum inhibitory concentration, MIC, S.R): 7.81 µg/mL (≈ 49.1 µM)
MIC [17]: 15.6 µg/mL (≈ 98.1 µM)
MIC [18]: 7.8 µg/mL (≈ 49 µM)
MIC [7]: 62.5 µg/mL (≈ 393 µM)

melting point: 265 °C
Structure (SMILES): CC(=O)c1ccc(N=Nc2cc3c(cc2O)OC(N)=C(C#N)C3c2ccc(F)cc2)cc1 (stereo not shown) [13d, 6-(4-Acetyl-phenylazo)-2-amino-4-(4-fluoro-phenyl)-7-hydroxy-4H-chromene-3-carbonitrile]
zone of inhibition at 5000 µg/mL [9, 21]: 13.2 mm
zone of inhibition at 5000 µg/mL [1, 19]: 13.4 mm
zone of inhibition at 5000 µg/mL [2, 20]: 11.4 mm
zone of inhibition at 5000 µg/mL [10, 22]: 12.9 mm
zone of inhibition at 5000 µg/mL [11, 23]: 10.8 mm
zone of inhibition at 5000 µg/mL [3]: 8 mm
IC50 [12]: 85 µg/mL (≈ 198 µM)
IC50 [13, 24]: 80 µg/mL (≈ 187 µM)
IC50 [14, 25]: 75 µg/mL (≈ 175 µM)
